ChEMBL document CHEMBL5154664, “Imidazolylacetophenone oxime-based multifunctional neuroprotective agents: Discovery and structure-activity relationships” (Eur J Med Chem, 2022)
In brackets after ≈: the same amount, converted by molar mass. Activity calls are given as the source filed them. No cut-off for these calls is given here.

Legend:
[1] = Cytotoxicity against LPS induced mouse BV-2 cells assessed as inhibition in cell viability at 20 uM measured by MTT assay
[2] = Antioxidant activity assessed as DPPH radical scavenging activity at 20 uM incubated for 30 mins under dark condition by microplate reader based assay; type: functional
[3] = Inhibition of LPS induced NO production in mouse BV-2 cells by Griess reagent based analysis; type: functional, cell-based
[4] = Permeability of compound by PAMPA-BBB assay; type: ADME; details: read-out: permeability
[5] = biological target: Acetylcholinesterase (Electrophorus electricus) (UniProt O42275); assay: Inhibition of electric eel AChE at 20 uM using acetylthiocholine iodide as substrate preincubated with enzyme for 20 mins followed by substrate addition and measured after 45 mins by Ellman's method; details: time 65.0 min
[6] = tested on: BV-2; assay: Antiinflammatory activity in mouse BV-2 cells assessed as suppression of LPS-induced IL-1beta secretion at 10 uM and measured after 24 hrs by ELISA; type: functional, cell-based
[7] = tested on: PC-12; assay: Anti-ferroptotic activity against RSL-3 induced ferroptosis in rat PC12 cells assessed as increase in cell viability at 10 uM measured after 24 hrs by MTT assay relative to control; type: functional
[8] = Cytotoxicity against rat PC12 cells assessed as cell viability at 1 to 10 uM measured after 24 hrs by MTT assay relative to control; type: toxicity, cell-based, PC-12; details: dose 1-10 µM, read-out: Activity
[9] = tested on: BV-2; assay: Antiinflammatory activity in mouse BV-2 cells assessed as […] LPS-induced TNFalpha production at 1 to 10 uM and measured after 24 hrs by ELISA; type: functional, cell-based; details: dose 1-10 µM, DDE = dose-dependent effect
[10] = Solubility of the compound by UV-spectrometry; type: physicochemical
[11] = tested on: PC-12; assay: Neuroprotective activity against H2O2-induced neuronal death in rat PC12 cells assessed as increase in cell viability at 10 uM measured after 24 hrs by MTT assay relative to control; type: functional
[12] = biological target: Acetylcholinesterase (Electrophorus electricus, UniProt O42275); assay: Mixed type inhibition of electric eel AChE by reciprocal Lineweaver-Burk plot analysis
[13] = tested on: BV-2; assay: Antiinflammatory activity in mouse BV-2 cells assessed as increase in LPS-induced Arg1 level at 10 uM by ELISA; type: functional, cell-based
[14] = Metal chelating activity assessed as Cu2+-compound complex formation at compound:Cu2+ molar ratio of 1:1 to 1:4 at 25 uM incubated for 30 mins by UV-visible spectrophotometry
[15] = Metal chelating activity assessed as compound Fe2+ complex formation by measuring maximum absorption wavelength shift at 25 uM incubated for 30 mins by UV-visible spectrophotometry
[16] = biological target: Prostaglandin G/H synthase 2 (Homo sapiens) (UniProt P35354); assay: Inhibition of human COX2 at 40 uM by microplate reader assay
[17] = tested on: BV-2; assay: Antiinflammatory activity in mouse BV-2 cells assessed as reduction in LPS-induced COX-2 expression at 0.1 to 5 uM by Western blot analysis relative to control; type: functional, cell-based; details: dose 0.1-5 µM, DDE = dose-dependent effect
[18] = tested on: BV-2; assay: Antiinflammatory activity in mouse BV-2 cells assessed as reduction in LPS-induced iNOS expression at 0.1 to 5 uM by Western blot analysis relative to control; type: functional, cell-based; details: dose 0.1-5 µM, DDE = dose-dependent effect
[19] = Metal chelating activity assessed as compound Mg2+ complex formation by measuring maximum absorption wavelength shift at 25 uM incubated for 30 mins by UV-visible spectrophotometry
[20] = Metal chelating activity assessed as compound Ca2+ complex formation by measuring maximum absorption wavelength shift at 25 uM incubated for 30 mins by UV-visible spectrophotometry
[21] = tested on: BV-2; assay: Antiinflammatory activity in mouse BV-2 cells assessed as reduction in LPS-induced iNOS expression at 0.5 uM by Western blot analysis relative to control; type: functional, cell-based
[22] = tested on: BV-2; assay: Antiinflammatory activity in mouse BV-2 cells assessed as reduction in LPS-induced COX-2 expression at 0.5 uM by Western blot analysis relative to control; type: functional, cell-based
[23] = Metal chelating activity assessed as Cu2+-compound complex formation by measuring maximum absorption wavelength shift at 25 uM incubated for 30 mins by UV-Visible spectrophotometry
[24] = Metal chelating activity assessed as compound Zn2+ complex formation by measuring maximum absorption wavelength shift at 25 uM incubated for 30 mins by UV-visible spectrophotometry

Acetylcholinesterase (Electrophorus electricus), sequence (O42275 24-633 limits assumed): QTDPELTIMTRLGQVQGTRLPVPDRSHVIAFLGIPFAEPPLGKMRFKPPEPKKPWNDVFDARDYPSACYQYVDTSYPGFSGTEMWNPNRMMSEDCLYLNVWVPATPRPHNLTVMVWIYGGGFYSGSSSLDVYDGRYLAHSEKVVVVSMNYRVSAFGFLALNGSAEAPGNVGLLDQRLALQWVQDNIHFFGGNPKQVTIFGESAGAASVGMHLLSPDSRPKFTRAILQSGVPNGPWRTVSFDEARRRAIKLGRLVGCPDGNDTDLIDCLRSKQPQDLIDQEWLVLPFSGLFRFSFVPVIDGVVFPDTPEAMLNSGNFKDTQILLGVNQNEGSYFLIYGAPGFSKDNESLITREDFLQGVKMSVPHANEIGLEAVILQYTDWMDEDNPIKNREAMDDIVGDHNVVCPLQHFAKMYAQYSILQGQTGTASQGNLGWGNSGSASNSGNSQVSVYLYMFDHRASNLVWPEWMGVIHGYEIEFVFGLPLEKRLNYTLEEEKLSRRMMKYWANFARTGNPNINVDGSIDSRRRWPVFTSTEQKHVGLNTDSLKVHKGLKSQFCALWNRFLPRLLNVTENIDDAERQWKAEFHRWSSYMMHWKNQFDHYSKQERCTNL
Prostaglandin G/H synthase 2 (Homo sapiens), sequence (P35354 whole entry, looked up): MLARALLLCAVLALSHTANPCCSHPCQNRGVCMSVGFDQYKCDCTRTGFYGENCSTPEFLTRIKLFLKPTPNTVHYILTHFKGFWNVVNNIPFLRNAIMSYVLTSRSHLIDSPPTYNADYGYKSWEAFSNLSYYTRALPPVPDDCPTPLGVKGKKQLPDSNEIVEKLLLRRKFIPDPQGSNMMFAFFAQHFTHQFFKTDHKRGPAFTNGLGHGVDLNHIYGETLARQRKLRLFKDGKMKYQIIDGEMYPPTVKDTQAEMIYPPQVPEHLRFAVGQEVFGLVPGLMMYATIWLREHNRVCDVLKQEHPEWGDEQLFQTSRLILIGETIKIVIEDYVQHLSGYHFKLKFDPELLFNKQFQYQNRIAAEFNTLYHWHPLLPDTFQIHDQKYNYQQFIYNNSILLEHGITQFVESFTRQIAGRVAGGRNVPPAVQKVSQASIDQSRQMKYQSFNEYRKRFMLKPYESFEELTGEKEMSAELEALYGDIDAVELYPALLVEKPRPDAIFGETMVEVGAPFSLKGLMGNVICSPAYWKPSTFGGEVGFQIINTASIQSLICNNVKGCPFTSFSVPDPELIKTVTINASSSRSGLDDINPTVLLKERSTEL
Acetylcholinesterase, sequence (O42275 whole entry): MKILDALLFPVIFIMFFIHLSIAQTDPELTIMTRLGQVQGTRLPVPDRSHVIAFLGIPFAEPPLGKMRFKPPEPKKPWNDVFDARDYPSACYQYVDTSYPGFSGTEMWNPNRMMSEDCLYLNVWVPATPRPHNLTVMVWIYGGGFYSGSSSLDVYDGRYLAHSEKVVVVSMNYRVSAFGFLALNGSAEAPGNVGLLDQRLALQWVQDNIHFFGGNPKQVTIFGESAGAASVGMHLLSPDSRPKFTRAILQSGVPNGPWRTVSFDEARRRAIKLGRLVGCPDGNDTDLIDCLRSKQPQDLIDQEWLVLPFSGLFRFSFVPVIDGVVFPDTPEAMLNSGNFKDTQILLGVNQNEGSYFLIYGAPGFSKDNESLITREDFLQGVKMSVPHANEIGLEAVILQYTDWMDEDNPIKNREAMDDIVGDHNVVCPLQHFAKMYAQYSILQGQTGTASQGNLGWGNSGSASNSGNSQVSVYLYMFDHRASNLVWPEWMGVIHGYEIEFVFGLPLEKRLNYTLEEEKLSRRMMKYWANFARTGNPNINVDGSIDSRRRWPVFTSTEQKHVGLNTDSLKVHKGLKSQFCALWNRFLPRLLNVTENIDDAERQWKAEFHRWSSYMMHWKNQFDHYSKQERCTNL

Compound: Clc1ccc(CO/N=C(\Cn2ccnc2)c2ccc(Cl)cc2Cl)c(Cl)c1 [OXICONAZOLE]
- viability at 20 µM ([1]; bv-2): 96.2%

Compound: CC1(C)Oc2ccc(/C(Cn3ccnc3)=N/OC(=O)/C=C/c3ccc(C(F)(F)F)cc3)cc2O1
- viability at 20 µM ([1]; BV-2 cells): 92.1%
- Activity [2]: 27.7%
- EC50 [3]: 1.03 µM

Compound: CC1(C)Oc2ccc(/C(Cn3ccnc3)=N/OC(=O)/C=C/c3ccc(F)cc3)cc2O1
- viability at 20 µM ([1]; BV-2 cells): 95.7%
- EC50 [3]: 5.96 µM

Compound: CC1(C)Oc2ccc(/C(Cn3ccnc3)=N/OC(=O)c3cccc4ccccc34)cc2O1
- viability at 20 µM ([1]; BV-2 cells): 91.1%
- Activity [2]: 36.2%
- EC50 [3]: 1.62 µM

Compound: C(=C\c1ccccc1)/CO/N=C(\Cn1ccnc1)c1ccc2c(c1)OCO2
- viability at 20 µM ([1]; BV-2 cells): 96.3%
- EC50 [3]: > 20 µM

Compound: C#CCO/N=C(\Cn1ccnc1)c1ccc(Cl)cc1
- viability at 20 µM ([1]; BV-2 cells): 92.4%
- EC50 [3]: 15.5 µM

Compound: CC1(C)Oc2ccc(/C(Cn3ccnc3)=N/OC(=O)/C=C/c3ccccc3F)cc2O1
- viability at 20 µM ([1]; BV-2 cells): 90.8%
- EC50 [3]: 3.19 µM

Compound: C#CCO/N=C(\Cn1ccnc1)c1ccc2c(c1)OCO2
- viability at 20 µM ([1]; BV-2 cells): 92.5%
- EC50 [3]: 2.07 µM

Compound: Cc1cccc(C(=O)O/N=C(\Cn2ccnc2)c2ccc3c(c2)OC(C)(C)O3)c1
- viability at 20 µM ([1]; BV-2 cells): 96.1%
- Activity [2]: 29.8%
- EC50 [3]: 1.71 µM

Compound: C#CCO/N=C(\Cn1ccnc1)c1ccc(I)cc1
- viability at 20 µM ([1]; BV-2 cells): 92.1%
- EC50 [3]: 12.7 µM

Compound: CC1(C)Oc2ccc(/C(Cn3ccnc3)=N/OC(=O)c3ccc(Br)cc3)cc2O1
- viability at 20 µM ([1]; BV-2 cells): 92.6%
- EC50 [3]: 3.16 µM

Compound: Cc1ccc(C(=O)O/N=C(\Cn2ccnc2)c2ccc3c(c2)OC(C)(C)O3)c2ccccc12
- viability at 20 µM ([1]; BV-2 cells): 94.3%
- Activity [2]: 34%
- EC50 [3]: 1.79 µM

Compound: FC(F)(F)c1ccc(CO/N=C(\Cn2ccnc2)c2ccc3c(c2)OCO3)cc1
- viability at 20 µM ([1]; BV-2 cells): 92.8%
- EC50 [3]: 2.37 µM

Compound: CC1(C)Oc2ccc(/C(Cn3ccnc3)=N/OC(=O)c3ccc(Cl)cc3)cc2O1
- viability at 20 µM ([1]; BV-2 cells): 90.5%
- EC50 [3]: 5.52 µM

Compound: NC(=O)N1c2ccccc2C=Cc2ccccc21 [CARBAMAZEPINE]
- Papp [4]: 10.2 ×10⁻⁶ cm/s

Compound: CC1(C)Oc2ccc(/C(Cn3ccnc3)=N/OC(=O)c3ccccc3Br)cc2O1
- viability at 20 µM ([1]; BV-2 cells): 95.4%
- EC50 [3]: 3.89 µM

Compound: Cc1ccc(C(=O)O/N=C(\Cn2ccnc2)c2ccc3c(c2)OC(C)(C)O3)cc1
- viability at 20 µM ([1]; BV-2 cells): 98.2%
- EC50 [3]: 9.05 µM

Compound: C#CC(C)O/N=C(\Cn1ccnc1)c1ccc2c(c1)OCO2 (configuration not stated)
- viability at 20 µM ([1]; BV-2 cells): 96.1%
- EC50 [3]: 5.41 µM

Compound: C=CCO/N=C(\Cn1ccnc1)c1ccc2c(c1)OC(C)(C)O2
- viability at 20 µM ([1]; BV-2 cells): 96.4%
- EC50 [3]: 2.22 µM

Compound: CC1(C)Oc2ccc(/C(Cn3ccnc3)=N/OC(=O)/C=C/c3cccc(Cl)c3)cc2O1
- viability at 20 µM ([1]; BV-2 cells): 92.7%
- EC50 [3]: 4.83 µM

Compound: C#CCO/N=C(\Cn1ccnc1)c1ccc(Br)cc1
- CC50 ([1]; BV-2 cells): > 20 µM
- EC50 [3]: 5.6 µM

Compound: CC1(C)Oc2ccc(/C(Cn3ccnc3)=N/OC(=O)c3ccc4ccccc4c3Br)cc2O1
- viability at 20 µM ([1]; BV-2 cells): 90.8%
- inhibition [5]: 72%
- EC50 [3]: 6.5 µM

Compound: CC1(C)Oc2ccc(/C(Cn3ccnc3)=N/OC(=O)c3ccc(F)cc3)cc2O1
- viability at 20 µM ([1]; BV-2 cells): 99.7%
- EC50 [3]: 6.32 µM

Compound: c1ccc(CO/N=C(\Cn2ccnc2)c2ccc3c(c2)OCO3)cc1
- viability at 20 µM ([1]; BV-2 cells): 97.8%
- EC50 [3]: 4.43 µM

Compound: C=C(C)CO/N=C(\Cn1ccnc1)c1ccc2c(c1)OCO2
- viability at 20 µM ([1]; BV-2 cells): 96.5%
- EC50 [3]: 2.12 µM

Compound: CC1(C)Oc2ccc(/C(Cn3ccnc3)=N/OC(=O)Cc3cccc4ccccc34)cc2O1
- Activity [6]: Active
- Activity [7]: 59%
- viability at 24 h, up to 10 µM [8]: > 95%
- Activity [9]: Dde
- viability at 20 µM ([1]; BV-2 cells): 94.8%
- solubility [10]: 509 µg/mL (≈ 1150 µM)
- Papp [4]: 9.2 ×10⁻⁶ cm/s
- Activity [11]: 84%
- EC50 [3]: 1.02 µM

Compound: CC1(C)Oc2ccc(/C(Cn3ccnc3)=N/OC(=O)/C=C/c3ccc(Br)cc3)cc2O1
- viability at 20 µM ([1]; BV-2 cells): 96.3%
- EC50 [3]: 6.89 µM

Compound: CC1(C)Oc2ccc(/C(Cn3ccnc3)=N/OCc3ccccc3)cc2O1
- viability at 20 µM ([1]; BV-2 cells): 95.7%
- EC50 [3]: 5.69 µM

Compound: C#CCO/N=C(\Cn1ccnc1)c1ccc(F)cc1
- viability at 20 µM ([1]; BV-2 cells): 93.8%
- EC50 [3]: 7.8 µM

Compound: CC1(C)Oc2ccc(/C(Cn3ccnc3)=N/OC(=O)/C=C/c3ccc(Cl)cc3)cc2O1
- viability at 20 µM ([1]; BV-2 cells): 91%
- inhibition [5]: 71%
- EC50 [3]: 3.71 µM

Compound: CC1(C)Oc2ccc(/C(Cn3ccnc3)=N/OC(=O)c3ccc4cc(Br)ccc4c3)cc2O1
- viability at 20 µM ([1]; BV-2 cells): 92.7%
- inhibition [5]: 69%
- EC50 [3]: 1.13 µM

Compound: C#CCO/N=C(\Cn1ccnc1)c1ccc2c(c1)OC(C)(C)O2
- viability at 20 µM ([1]; BV-2 cells): 95.1%
- EC50 [3]: 3.25 µM

Compound: CC(C)=CCO/N=C(\Cn1ccnc1)c1ccc2c(c1)OCO2
- viability at 20 µM ([1]; BV-2 cells): 93.3%
- Activity [2]: 4.25%
- EC50 [3]: 1.76 µM

Compound: FC(F)(F)c1ccccc1CO/N=C(\Cn1ccnc1)c1ccc2c(c1)OCO2
- viability at 20 µM ([1]; BV-2 cells): 95.4%
- Activity [2]: 8.51%
- EC50 [3]: 1.53 µM

Compound: CC1(C)Oc2ccc(/C(Cn3ccnc3)=N/OC(=O)/C=C/c3ccccc3)cc2O1
- viability at 20 µM ([1]; BV-2 cells): 91.8%
- EC50 [3]: 5.85 µM

Compound: C#CCO/N=C(\Cn1ccnc1)c1ccc(C(F)(F)F)cc1
- viability at 20 µM ([1]; BV-2 cells): 93.7%
- EC50 [3]: 8.55 µM

Compound: Cc1ccc(/C=C/C(=O)O/N=C(\Cn2ccnc2)c2ccc3c(c2)OC(C)(C)O3)cc1
- viability at 20 µM ([1]; BV-2 cells): 93.6%
- EC50 [3]: 6.03 µM

Compound: CC1(C)Oc2ccc(/C(Cn3ccnc3)=N/OC(=O)Cc3ccc4ccccc4c3)cc2O1
- viability at 20 µM ([1]; BV-2 cells): 96.4%
- EC50 [3]: 1.51 µM

Compound: CC1(C)Oc2ccc(/C(Cn3ccnc3)=N/OC(=O)c3ccc4ccccc4c3)cc2O1
- Ki [12]: 308 nM
- Activity [13]: Active
- Activity [6]: Active
- Activity [14]: Active
- Activity [7]: 58%
- viability at 24 h, up to 10 µM [8]: > 95%
- Activity [15]: Active
- inhibition [16]: 92%
- Activity [17]: Dde
- Activity [18]: Dde
- Activity [19]: Active
- Activity [9]: Dde
- Activity [20]: Active
- viability at 20 µM ([1]; BV-2 cells): 94.1%
- Activity [21]: Active
- Activity [2]: 25.5%
- solubility [10]: 316 µg/mL (≈ 738 µM)
- Papp [4]: 10.7 ×10⁻⁶ cm/s
- Activity [22]: Active
- Activity [11]: 83%
- inhibition [5]: 67%
- Activity [23]: Active
- Activity [24]: Active
- EC50 [3]: 0.57 µM

Compound: C#CCO/N=C(\Cn1ccnc1)c1ccc(OC)cc1
- viability at 20 µM ([1]; BV-2 cells): 95.9%
- EC50 [3]: 9.07 µM

Compound: N#Cc1ccc(CO/N=C(\Cn2ccnc2)c2ccc3c(c2)OCO3)cc1
- viability at 20 µM ([1]; BV-2 cells): 91.6%
- EC50 [3]: 4.24 µM

Compound: C=CCO/N=C(\Cn1ccnc1)c1ccc2c(c1)OCO2
- viability at 20 µM ([1]; BV-2 cells): 97.8%
- EC50 [3]: 3.42 µM

Compound: O=c1c(O)c(-c2ccc(O)c(O)c2)oc2cc(O)cc(O)c12 [QUERCETIN]
- viability at 20 µM ([1]; BV-2 cells): 94.3%
- EC50 [3]: 9.56 µM
